# Where “and” joins values, the source holds several entries; their conditions need not be identical. Equal values may be shown once. Read-outs that look alike come from different tables or passages of the source.
# Experiments:
# [1] = molecular target: T1, α1 homomeric glycine receptors (Rattus norvegicus, UniProt P07727); assay: Co-activation of the current response to 10 μM glycine, whole-cell patch clamp, transfected HEK 293 cells; format: cell-based; settings: for nH (Hill coefficient), coactivating response, α1 homomer: co-applied with 10 μM glycine, Hill fit, ± s.d.
# T1 construct: expressed in transfected cells; host or cells: HEK 293, transient electroporation, cDNA in pCIS2, GFP cDNA co-transfected as marker
# T1 sequence (P07727 29-457): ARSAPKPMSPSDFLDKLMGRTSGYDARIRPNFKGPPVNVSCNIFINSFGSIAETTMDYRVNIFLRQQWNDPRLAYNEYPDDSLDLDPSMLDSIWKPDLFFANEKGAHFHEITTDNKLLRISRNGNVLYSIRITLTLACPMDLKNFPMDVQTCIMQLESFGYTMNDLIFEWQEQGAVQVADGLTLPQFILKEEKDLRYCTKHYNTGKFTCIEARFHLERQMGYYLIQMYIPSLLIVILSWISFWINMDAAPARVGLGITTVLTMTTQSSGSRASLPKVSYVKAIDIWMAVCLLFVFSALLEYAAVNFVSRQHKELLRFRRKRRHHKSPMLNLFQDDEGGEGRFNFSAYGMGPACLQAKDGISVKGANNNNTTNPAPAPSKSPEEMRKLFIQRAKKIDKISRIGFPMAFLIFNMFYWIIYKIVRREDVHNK
# Method: (§1) Reduced sensitivity to 1000 μM picrotoxin in α1β heteromeric receptors was used as an assay of the efficacy of β subunit expression. Cells were cultured in Dulbecco's modified Eagle's medium (DMEM, Biochrom, Berlin, Germany), supplemented with 10% fetal calf serum (FCS, Biochrom, Berlin, Germany), 100 U ml^−1 penicillin and 100 μg ml^−1 streptomycin at 37° C. in a 5% CO2/air incubator. For transfection, cells were suspended in a buffer containing 50 mM K2HPO4 and 20 mM K-acetate, pH 7.35. […] To visualize transfected cells, they were co-transfected with cDNA of green fluorescent protein (GFP 10 μg ml^−1). For transfection, we used an electroporation device by EquiBio (Kent, UK). Transfected cells were replated on glass-coverslips and incubated 15-24 h before recording.
# (§2) The phenol derivatives under investigation were prepared as 1 M stock solution in ethanol, light-protected and stored in glass vessels at −20° C. Concentrations were calculated from the amount injected into the glass vials. Drug-containing vials were vigorously vortexed for 60 min.
# (§3) Patch electrodes contained [mM] KCl 140, MgCl2 2, EGTA 11, HEPES 10, glucose 10; the bath solution contained [mM] NaCl 162, KCl 5.3, NaHPO4 0.6, KH2PO4 0.22, HEPES 15, glucose 5.6.
# (§4) Standard whole-cell experiments (Hamill et al., (1981) Pflügers Arch., 391, 85-100.) were performed at −30 mV membrane potential. A tight electrical seal of several GΩ formed between the cell membrane and a patch-clamp electrode allows inward currents due to agonist-induced channel activation to resolve in the pA range. Electrical resistance of the pipettes was around 5 MΩ, corresponding to a total access resistance in the whole-cell configuration of about 10 MΩ. An ultra-fast liquid filament switch technique (Franke et al., (1987) Neurosci. Lett., 77, 199-204) was used for the application of the agonist in pulses of 2 s duration. The agonist and/or the drug under investigation were applied to the cells via a smooth liquid filament achieved with a single outflow (glass tubing 0.15 mm inner diameter) connected to a piezo crystal. The cells were placed at the interface between this filament and the continuously flowing background solution. When a voltage pulse was applied to the piezo, the tube was moved up and down onto or away from the cell under investigation. […] The contents of these reservoirs were mixed at a junction immediately before entering the superfusion chamber.
# (§5) A new cell was used for each drug and each protocol, at least three different experiments were performed for each setting. The amount of the diluent ethanol corresponding to the highest drug concentration used was 34 000 μM.
# (§6) For data acquisition and further analysis the inventors used the Axopatch 200B amplifier in combination with pClamp6 software (Axon Instruments, Union City, Calif., USA). Currents were filtered at 2 kHz. Fitting procedures were performed using a non-linear least-squares Marquardt-Levenberg algorithm. Details are provided in the appropriate figure legends or in the results section.
# (§7) Activated or co-activated currents were normalized to their own maximum response. […] In these cases, the maximum response was the response at the highest concentration of the test compound for which a reliable response could be recorded.
# (§8) Only results obtained with α1β receptors were enrolled in the statistical tests. […] Statistical analysis was performed in order to reveal differences in the maximum effect on the one hand and in the concentrations required to achieve half-maximum effect (EC50) on the other between halogenated and non-halogenated analogues, between compounds with one vs. two methyl groups, or between compounds with ortho- or meso-position of the methyl groups with respect to the phenolic hydroxyl group, respectively. Curve fitting and parameter estimation of the Hill curves were performed using the program “PROC NLMIXED” of SAS Release 8.02.
# [2] = molecular target: T2, α1β heteromeric glycine receptors (Rattus norvegicus, UniProt P07727); assay: as above; format: cell-based; settings: for nH (Hill coefficient), coactivating response, α1β heteromer: co-applied with 10 μM glycine, Hill fit, ± s.d.; for half-maximum concentration for glycine receptor co-activation, fold lower than for half-maximum blockade of sodium channels: selectivity versus reported sodium channel block
# T2 construct: expressed in transfected cells; host or cells: HEK 293, transient electroporation, α:β cDNA 1:10, pCIS2 vector
# Method: as §1, §2, §3, §4, §5, §6, §7, §8
# [3] = molecular target: T1, α1 homomeric glycine receptors; assay: Direct activation of Cl- inward currents (agonist applied alone), whole-cell patch clamp, HEK 293; format: cell-based; settings: for directly activated current as % of the maximum glycine (1000 μM) response: 3000 μM compound, without glycine, α1, n=3; for EC50: read-out: half-maximum concentration (EC50) for direct activation
# Method: as §1, §4, §5, §6, §7
# [4] = molecular target: T2, α1β heteromeric glycine receptors; assay: as above; format: cell-based; settings: for directly activated current as % of the maximum glycine (1000 μM) response: 3000 μM compound, without glycine, α1β, n=3; for EC50: read-out: half-maximum concentration (EC50) for direct activation
# Method: as §1, §4, §5, §6, §7
# [5] = system: voltage-operated sodium channels; settings: cited from earlier work
# glycine receptors = molecular target: T3, glycine receptors (Rattus norvegicus, UniProt P07727); assay: Inhibitory effects (open channel block) on co-application with saturating 1000 μM glycine; format: cell-based; settings: co-applied with 1000 μM glycine, 3 experiments
# T3 construct: expressed in transfected cells; host or cells: HEK 293
# T3 sequence (P07727 29-457): T1 sequence (P07727 29-457)
# Method: as §4
# A new cell was used for each drug and each protocol, at least three different experiments were performed for each setting. […]
# [6] = molecular target: T4, α-subunits of glycine receptors from the rat coexpressed with human β subunits (Rattus norvegicus, UniProt P07727); assay: Example 2: direct activation in the absence of glycine, whole-cell mode, HEK293 cells; format: cell-based; settings: for EC50 values in the absence of the natural transmitter glycine: Example 2; for direct activating effect, fold higher concentrations than the co-activating effect: absence of glycine versus 10 μM glycine
# T4 construct: expressed in transfected cells; host or cells: HEK293
# Excerpt: (§9) Small cells were studied in the whole-cell mode using an ultra-fast application device.
# The solid line is a Hill fit to the data with the indicated parameters. Note that the direct activating effect is observed at 1000-fold higher concentrations than the co-activating effect.
# [7] = molecular target: T4, α-subunits of glycine receptors from the rat coexpressed with human β subunits; assay: Example 2: co-activation of the current response to 10 μM glycine, whole-cell mode, HEK293 cells; format: cell-based; settings: for EC50 values in the presence of glycine (co-activation): Example 2; for concentrations at which the co-activating effect is overridden by inhibitory effects: co-applied with 10 μM glycine; for enhancement of glycine receptor function / EC50 for co-activation, fold lower concentrations than propofol: glycine receptors heterologously expressed in HEK293 cells
# Method: as §9
# The results presented in FIG. 10 were corroborated by repeating the tests carried out to provide the data shown in FIG. 10 to provide the data shown in FIG. 11. […] Note from FIGS. 10 and 11 that the co-activating effect is observed in the concentration range between […]. The co-activating effect is overridden by inhibitory effects at higher concentrations (≧1000 μM). […] Small cells were studied in the whole-cell mode using an ultra-fast application device.
# α1β glycine receptors = molecular target: T5, α1β glycine receptors (Rattus norvegicus, UniProt P07727); assay: Picrotoxin block of the 1000 μM glycine current (check of β subunit expression); format: cell-based; settings: picrotoxin 1000 μM co-applied with 1000 μM glycine
# T5 construct: expressed in transfected cells; host or cells: HEK 293, transient electroporation, α:β cDNA 1:10, pCIS2 vector
# Method: as §1
# (§10) A total of 94 cells were included in the study.
# [8] = molecular target: T1, α1 homomeric glycine receptors; assay: as above; format: cell-based; settings: picrotoxin 1000 μM co-applied with 1000 μM glycine
# Method: as §1, §10
# [9] = read-out: EC50 (μM), normalised coactivating response, α1 homomer
# [10] = read-out: EC50 (μM), normalised coactivating response, α1β heteromer
# T4 sequence (P48167 23-497 partner, one chain of several): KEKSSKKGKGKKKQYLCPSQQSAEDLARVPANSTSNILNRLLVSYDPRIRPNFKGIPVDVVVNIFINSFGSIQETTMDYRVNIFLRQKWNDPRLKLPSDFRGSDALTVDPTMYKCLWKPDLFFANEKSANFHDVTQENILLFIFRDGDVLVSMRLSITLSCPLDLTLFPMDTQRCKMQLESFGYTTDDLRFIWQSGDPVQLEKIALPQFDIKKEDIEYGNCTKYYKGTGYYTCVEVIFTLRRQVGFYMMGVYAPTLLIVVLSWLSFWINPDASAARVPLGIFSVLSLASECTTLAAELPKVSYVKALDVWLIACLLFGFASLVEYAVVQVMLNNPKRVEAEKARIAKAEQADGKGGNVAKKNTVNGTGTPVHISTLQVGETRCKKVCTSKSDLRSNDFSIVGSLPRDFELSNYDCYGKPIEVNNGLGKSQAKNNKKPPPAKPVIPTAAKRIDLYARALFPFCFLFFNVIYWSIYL
# T2 sequence (P20781 23-496 partner, one chain of several): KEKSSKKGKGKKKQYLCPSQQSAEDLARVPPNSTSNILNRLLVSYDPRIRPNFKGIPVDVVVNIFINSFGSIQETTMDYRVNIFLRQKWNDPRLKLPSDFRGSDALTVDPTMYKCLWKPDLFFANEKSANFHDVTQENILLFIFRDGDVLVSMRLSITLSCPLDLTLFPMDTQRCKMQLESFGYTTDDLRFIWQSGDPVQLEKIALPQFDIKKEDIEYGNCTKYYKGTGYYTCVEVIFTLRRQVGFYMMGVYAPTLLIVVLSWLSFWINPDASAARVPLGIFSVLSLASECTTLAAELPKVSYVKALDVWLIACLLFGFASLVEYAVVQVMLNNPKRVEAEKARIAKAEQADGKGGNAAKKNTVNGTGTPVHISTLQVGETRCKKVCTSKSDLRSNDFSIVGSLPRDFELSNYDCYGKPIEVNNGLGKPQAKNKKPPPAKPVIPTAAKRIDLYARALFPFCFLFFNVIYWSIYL
# T5 sequence (P20781 23-496 partner, one chain of several): as above
compound,measurement,setting,value
Cc1ccccc1O [2 methylphenol],EC50,[1],70 ± 29 µM
same,"nH (Hill coefficient), coactivating response, α1 homomer",[1],0.7 ± 0.1
same,EC50,[2],448 ± 89 µM
same,"nH (Hill coefficient), coactivating response, α1β heteromer",[2],1.2 ± 0.2
"Cc1cccc(C)c1O [2,6 dimethylphenol]",directly activated current as % of the maximum glycine (1000 μM) response,[3],32±6%
same,EC50,[3],1410 ± 101 µM
same,directly activated current as % of the maximum glycine (1000 μM) response,[4],33±10%
same,EC50,[4],1550 ± 164 µM
same,"nH (Hill coefficient), coactivating response, α1 homomer",[1],1.5 ± 0.4
same,EC50,[1]; [9],226 ± 104 µM
same,"nH (Hill coefficient), coactivating response, α1β heteromer",[2],1.2 ± 0.1
same,EC50,[2]; [10],370 µM and 373 µM
same,IC50,"[5]; membrane potential close to the physiological resting potential, read-out: half-maximum blockade of voltage-operated neuronal sodium channels",187 µM
Cc1cc(O)ccc1Cl [3 methyl-4-chlorophenol],concentration producing a reduction in peak current amplitude with response rebound,glycine receptors,> 600 µM
same,EC50,[1],8 ± 5 µM
same,"nH (Hill coefficient), coactivating response, α1 homomer",[1],1.1 ± 0.4
same,EC50,[2],4 µM
same,"nH (Hill coefficient), coactivating response, α1β heteromer",[2],1.2 ± 0.3
same,"half-maximum concentration for glycine receptor co-activation, fold lower than for half-maximum blockade of sodium channels",[2],~100 fold
same,IC50,"[5]; resting state, read-out: half-maximum block of sodium channels",400 µM
Cc1cccc(O)c1 [3 methylphenol],"nH (Hill coefficient), coactivating response, α1 homomer",[1],0.9 ± 0.3
same,EC50,[1]; [9],59 ± 19 µM
same,"nH (Hill coefficient), coactivating response, α1β heteromer",[2],1.0 ± 0.1
same,EC50,[2]; [10],222 ± 45 µM
"Cc1cc(O)cc(C)c1Cl [3,5 dimethyl-4-chlorophenol]",concentration producing a reduction in peak current amplitude with response rebound,glycine receptors,> 300 µM
same,"nH (Hill coefficient), coactivating response, α1 homomer",[1],1.4 ± 2.9
same,EC50,[1]; [9],13 ± 4 µM
same,"nH (Hill coefficient), coactivating response, α1β heteromer",[2],1.3 ± 0.1
same,EC50,[2]; [10],11 ± 2 µM
same,"half-maximum concentration for glycine receptor co-activation, fold lower than for half-maximum blockade of sodium channels",[2],about 10 fold
"Cc1cc(C)cc(O)c1 [3,5 dimethylphenol]",directly activated current as % of the maximum glycine (1000 μM) response,[3],30±12%
same,EC50,[3],1470 ± 208 µM
same,directly activated current as % of the maximum glycine (1000 μM) response,[4],38±5%
same,EC50,[4],1470 ± 83 µM
same,"nH (Hill coefficient), coactivating response, α1 homomer",[1],1.7 ± 0.9
same,EC50,[1]; [9],254 ± 139 µM
same,"nH (Hill coefficient), coactivating response, α1β heteromer",[2],1.3 ± 0.2
same,EC50,[2]; [10],308 ± 46 µM
"CC(C)c1cc(Br)cc(C(C)C)c1O [4-bromopropofol, 4-bromo-2,6 di-isopropylphenol]",EC50 values in the absence of the natural transmitter glycine,[6],single-digit micromolar range
same,"direct activating effect, fold higher concentrations than the co-activating effect",[6],1000 fold
same,EC50 values in the presence of glycine (co-activation),[7],single-digit nanomolar range
same,concentrations at which the co-activating effect is overridden by inhibitory effects,[7],> 1000 µM
same,"enhancement of glycine receptor function / EC50 for co-activation, fold lower concentrations than propofol",[7],1000 fold
"CC(C)c1cc(I)cc(C(C)C)c1O [4-iodopropofol, 4-iodo-2,6 di-isopropylphenol]",EC50 values in the absence of the natural transmitter glycine,[6],single-digit micromolar range
same,"direct activating effect, fold higher concentrations than the co-activating effect",[6],1000 fold
same,EC50 values in the presence of glycine (co-activation),[7],single-digit nanomolar range
same,concentrations at which the co-activating effect is overridden by inhibitory effects,[7],> 1000 µM
same,"enhancement of glycine receptor function / EC50 for co-activation, fold lower concentrations than propofol",[7],1000 fold
NCC(=O)O [glycine],"current response evoked by 10 μM glycine, % of the response to 1000 μM glycine","[3]; α1 receptors, n=24",46±5%
same,"current response evoked by 10 μM glycine, % of the response to 1000 μM glycine","[4]; α1β receptors, n=34",21±7%
picrotoxin,block of receptors by picrotoxin,α1β glycine receptors,19±0.05%
same,block of receptors by picrotoxin,[8],55±0.05%

# From patent US20160095823A1, “METHODS OF USING PROPOFOL DERIVATIVES FOR ANALGESIA” (priority 2005, published 2016)
